Legend:
Format in all cases: physicochemical
[1] = Solubility of tretinoin in ethanol, ester cosolvent or both
Procedure: The method of preparing the solution is not critical. Typically, the cosolvents are combined and the retinoid is added with stirring at room temperature until completely solubilized.
It has been experimentally determined that tretinoin is not soluble in ethanol in the ratios set forth in Examples A-D:
Isopropyl myristate (“IPM”) can be replaced with alkyl benzoate, isopropyl palmitate (“IPP”) or diisopropyl adipate to achieve the same results.
In Examples E-J where alcohol is not present, the retinoids are not soluble in the esters alone. This further confirms the present finding that retinoids can be solubilized in a small amount of alcohol by using specific cosolvents.
To effectively utilize the chamber in a chamber delivery system, one must balance the concentration of the actives in both chambers. This is necessary to achieve the final, active concentration, which is efficacious as well as compliant with the FDA. The present disclosure teaches how to prepare higher concentrations of tretinoin in solution for the small chamber by using lower concentrations of alcohol by means of cosolvents such a alkyl benzoate, isopropyl myristate, and isopropyl palmitate.

[2] = Elevated temperature stability of the actives in the oil in water emulsion of Example 10; settings: Example 10 emulsion
Procedure: The elevated temperature stability of the actives in the oil in water emulsion of Example 10 was determined using techniques within the purview of those skilled in the art.

[3] = Elevated temperature stability of the actives in the liquid to powder suspension system of Example 13; settings: Example 13 suspension
Procedure: The elevated temperature stability of the actives in the liquid to powder suspension system of Example 13 was determined using techniques known to those skilled in the art.

[4] = 25° C., 2 months, unit not given
[5] = 25° C., 3 months, unit not given
[6] = 30° C., 1 month, unit not given
[7] = 30° C., 2 months, unit not given
[8] = 30° C., 3 months, unit not given

SMILES: CC1=C(/C=C/C(C)=C/C=C/C(C)=C/C(=O)O)C(C)(C)CCC1 [Tretinoin]
- dissolution in alcohol using ester cosolvent ([1]; 1 gram of tretinoin in 3 grams of alcohol (33.3 percent solution) with alkyl benzoate, isopropyl myristate, isopropyl palmitate or other esters): completely dissolved
- solubility in ethanol ([1]; ethanol alone, tretinoin:ethanol ratios of Examples A-D): not soluble
- solubility in ethanol plus cosolvent (clear solution) ([1]; same tretinoin:ethanol ratios, cosolvent IPM added (Examples 1-4)): completely dissolve into a clear solution
- active content, 25° C., 2 months [2, 4]: 0.0497
- active content, 25° C., 3 months [2, 5]: 0.0497
- active content, 30° C., 1 month [2, 6]: 0.0490
- active content, 30° C., 2 months [2, 7]: 0.0490
- active content, 30° C., 3 months [2, 8]: 0.0490
- active content, Initial ([2]; initial): 0.0497%
- active content, 25° C., 1 month ([3]; 25° C., 1 month, unit not given): 0.0508
- active content, 25° C., 2 months [3, 4]: 0.0499
- active content, 25° C., 3 months [3, 5]: 0.0497
- active content, 30° C., 1 month [3, 6]: 0.051
- active content, 30° C., 2 months [3, 7]: 0.0498
- active content, 30° C., 3 months [3, 8]: 0.0488
- active content, Initial ([3]; initial): 0.0517%

Reference: patent US20060014834A1, “Retinoid solutions and formulations made therefrom” (priority 2004, published 2006)
